Data as given in US20200030368A1, “A POLYMER NETWORK, METHOD FOR PRODUCTION, AND USES THEREOF” (priority 2016, published 2020).

Legend:
S. aureus = assay: Resistance study by serial passaging at sub-MIC; assay type: cell-based; settings: 14 passages at sub-MIC (MIC/2)
Description: (§1) Two control antibiotics norfloxacin and colistin were chosen for S. aureus and for A. baumannii, respectively. In case of norfloxacin and colistin also, the initial MIC values were determined against respective bacteria. After the initial MIC experiment, serial passaging was initiated by transferring bacterial suspension grown at the sub-MIC of the polymer/antibiotics and was subjected to another MIC assay. […] The process was repeated for 14 passages for both S. aureus and A. baumannii respectively. The fold increase in MIC for test polymer to the control antibiotics was plotted against the number of passages to determine the propensity of bacterial resistance development.

A. baumannii = assay: Resistance study by serial passaging at sub-MIC; assay type: cell-based; settings: 14 passages at sub-MIC (MIC/2)
Description: as §1

| Molecule | change in MIC on serial passaging (S. aureus) | change in MIC on serial passaging (A. baumannii) |
| --- | --- | --- |
| CCn1cc(C(=O)O)c(=O)c2cc(F)c(N3CCNCC3)cc21 [norfloxacin] | gradual increase in MIC | – |
| colistin | – | gradual increase in MIC |
